PubChem BioAssay AID2060623 (Molecular Pharmacology Branch, DTP, NCI, 2025)
Several values for one entry are separate records, joined by “and”; a condition that tells them apart may be missing. Identical values can stand only once.

Tested on: 227483-062-R1-J1-PDC complex spheroids with HUVEC/MSC, viability
Assay: Anticancer human tumor 227483-062-R1-J1-PDC patient-derived pancreatic carcinoma cell line growth inhibition [CLK]
Conditions: for viability, T/C: stronger effect = lower value
Outline: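 Multi-cell-type spheroids combined patient-derived tumor cells with HUVEC endothelial cells and human mesenchymal stem cells. Paired agents were dosed in half-log steps down from about clinical Cmax, or from 10 microM where Cmax was unknown.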

[1] = curve of first compound, second compound 0.0316 µM
[2] = curve of first compound, second compound 0.1 µM
[3] = curve of first compound, second compound 0.316 µM
[4] = curve of first compound, second compound 1 µM
[5] = curve of first compound, second compound 3.16 µM
[6] = curve of first compound, second compound 10 µM
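Further: spheroids exposed to compounds for seven days before readout.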
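Wherever viability, T/C is given: percent of DMSO vehicle control luminescence as 100% viability.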

SMILES: CC(C)CC(NC(=O)C(Cc1ccccc1)NC(=O)c1cnccn1)B(O)O (stereo unspecified) + CNC(=O)c1ccc(Nc2nc(OC3CCCC3)c3c(-c4ccc5nc(C)oc5c4)c[nH]c3n2)c(OC)c1
- IC50 [1]: 1.53 nM
- IC50 [2]: 1.64 nM
- IC50 [3]: 1.39 nM
- IC50 [4]: < 0.949 nM
- IC50 [5]: < 0.949 nM
- IC50 [6]: < 0.949 nM
- viability, T/C (second compound 0.0316 µM, first compound 0.000949 µM): 84%
- viability, T/C (second compound 0.0316 µM, first compound 0.003 µM): 1.62%
- viability, T/C (second compound 0.0316 µM, first compound 0.00949 µM): 0.49%
- viability, T/C (second compound 0.0316 µM, first compound 0.03 µM): 1.29%
- viability, T/C (second compound 0.0316 µM, first compound 0.0949 µM): 0.77%
- viability, T/C (second compound 0.0316 µM, first compound 0.3 µM): 1.96%
- viability, T/C (second compound 0.1 µM, first compound 0.000949 µM): 94.3%
- viability, T/C (second compound 0.1 µM, first compound 0.003 µM): 1.2%
- viability, T/C (second compound 0.1 µM, first compound 0.00949 µM): 1.56%
- viability, T/C (second compound 0.1 µM, first compound 0.03 µM): 0.47%
- viability, T/C (second compound 0.1 µM, first compound 0.0949 µM): 0.71%
- viability, T/C (second compound 0.1 µM, first compound 0.3 µM): 0.48%
- viability, T/C (second compound 0.316 µM, first compound 0.000949 µM): 74.2%
- viability, T/C (second compound 0.316 µM, first compound 0.003 µM): 0.82%
- viability, T/C (second compound 0.316 µM, first compound 0.00949 µM): 0.43%
- viability, T/C (second compound 0.316 µM, first compound 0.03 µM): 0.97%
- viability, T/C (second compound 0.316 µM, first compound 0.0949 µM): 0.43%
- viability, T/C (second compound 0.316 µM, first compound 0.3 µM): 0.68%
- viability, T/C (second compound 1 µM, first compound 0.000949 µM): 42.7%
- viability, T/C (second compound 1 µM, first compound 0.003 µM): 0.52%
- viability, T/C (second compound 1 µM, first compound 0.00949 µM): 0.29%
- viability, T/C (second compound 1 µM, first compound 0.03 µM): 0.28%
- viability, T/C (second compound 1 µM, first compound 0.0949 µM): 1.45%
- viability, T/C (second compound 1 µM, first compound 0.3 µM): 0.23%
- viability, T/C (second compound 3.16 µM, first compound 0.000949 µM): 26.4%
- viability, T/C (second compound 3.16 µM, first compound 0.003 µM): 0.37%
- viability, T/C (second compound 3.16 µM, first compound 0.00949 µM): 0.79%
- viability, T/C (second compound 3.16 µM, first compound 0.03 µM): 0.21%
- viability, T/C (second compound 3.16 µM, first compound 0.0949 µM): 1.01%
- viability, T/C (second compound 3.16 µM, first compound 0.3 µM): 0.26%
- viability, T/C (second compound 10 µM, first compound 0.000949 µM): 17%
- viability, T/C (second compound 10 µM, first compound 0.003 µM): 0.42%
- viability, T/C (second compound 10 µM, first compound 0.00949 µM): 0.24%
- viability, T/C (second compound 10 µM, first compound 0.03 µM): 0.26%
- viability, T/C (second compound 10 µM, first compound 0.0949 µM): 1.09%
- viability, T/C (second compound 10 µM, first compound 0.3 µM): 0.3%

SMILES: CCc1c2c(nc3ccc(O)cc13)-c1cc3c(c(=O)n1C2)COC(=O)[C@]3(O)CC + CNC(=O)c1ccc(Nc2nc(OC3CCCC3)c3c(-c4ccc5nc(C)oc5c4)c[nH]c3n2)c(OC)c1
- IC50 [1]: 205 nM
- IC50 [2]: 176 nM
- IC50 [3]: 64 nM
- IC50 [4]: 11.4 nM
- IC50 [5]: < 3.16 nM
- IC50 [6]: < 3.16 nM
- viability, T/C (second compound 0.0316 µM, first compound 0.00316 µM): 121%
- viability, T/C (second compound 0.0316 µM, first compound 0.01 µM): 96.1%
- viability, T/C (second compound 0.0316 µM, first compound 0.0316 µM): 81.2%
- viability, T/C (second compound 0.0316 µM, first compound 0.1 µM): 60.5%
- viability, T/C (second compound 0.0316 µM, first compound 0.316 µM): 41.5%
- viability, T/C (second compound 0.0316 µM, first compound 1 µM): 32.5%
- viability, T/C (second compound 0.1 µM, first compound 0.00316 µM): 111%
- viability, T/C (second compound 0.1 µM, first compound 0.01 µM): 97.1%
- viability, T/C (second compound 0.1 µM, first compound 0.0316 µM): 69.3%
- viability, T/C (second compound 0.1 µM, first compound 0.1 µM): 64.4%
- viability, T/C (second compound 0.1 µM, first compound 0.316 µM): 42.1%
- viability, T/C (second compound 0.1 µM, first compound 1 µM): 19.8%
- viability, T/C (second compound 0.316 µM, first compound 0.00316 µM): 65.2%
- viability, T/C (second compound 0.316 µM, first compound 0.01 µM): 84.3%
- viability, T/C (second compound 0.316 µM, first compound 0.0316 µM): 62.2%
- viability, T/C (second compound 0.316 µM, first compound 0.1 µM): 37.8%
- viability, T/C (second compound 0.316 µM, first compound 0.316 µM): 24.1%
- viability, T/C (second compound 0.316 µM, first compound 1 µM): 5.82%
- viability, T/C (second compound 1 µM, first compound 0.00316 µM): 61.2%
- viability, T/C (second compound 1 µM, first compound 0.01 µM): 54%
- viability, T/C (second compound 1 µM, first compound 0.0316 µM): 34.1%
- viability, T/C (second compound 1 µM, first compound 0.1 µM): 19.4%
- viability, T/C (second compound 1 µM, first compound 0.316 µM): 10.4%
- viability, T/C (second compound 1 µM, first compound 1 µM): 1.96%
- viability, T/C (second compound 3.16 µM, first compound 0.00316 µM): 44%
- viability, T/C (second compound 3.16 µM, first compound 0.01 µM): 35.2%
- viability, T/C (second compound 3.16 µM, first compound 0.0316 µM): 24.2%
- viability, T/C (second compound 3.16 µM, first compound 0.1 µM): 12.6%
- viability, T/C (second compound 3.16 µM, first compound 0.316 µM): 7.58%
- viability, T/C (second compound 3.16 µM, first compound 1 µM): 2.02%
- viability, T/C (second compound 10 µM, first compound 0.00316 µM): 33.4%
- viability, T/C (second compound 10 µM, first compound 0.01 µM): 32.4%
- viability, T/C (second compound 10 µM, first compound 0.0316 µM): 17.1%
- viability, T/C (second compound 10 µM, first compound 0.1 µM): 11.4%
- viability, T/C (second compound 10 µM, first compound 0.316 µM): 6.34%
- viability, T/C (second compound 10 µM, first compound 1 µM): 2.19%

SMILES: COc1c(OCCCN2CCOCC2)ccc2c3n(c(=NC(=O)c4cnc(N)nc4)nc12)CCN3
- viability, T/C (compound 0.00316 µM): 92.4% and 100%
- viability, T/C (compound 0.01 µM): 90.7% and 83.8%
- viability, T/C (compound 0.0316 µM): 85% and 72.6%
- viability, T/C (compound 0.1 µM): 56.2% and 75.9%
- viability, T/C (compound 0.316 µM): 55.8% and 59.5%
- viability, T/C (compound 1 µM): 45.3% and 40.5%
- IC50 (curve of compound): > 1000 nM and 575 nM
